{"source": "paper PMC7987348", "about": "“Structural basis for human TRPC5 channel inhibition by two distinct inhibitors” (eLife, 2021)", "molecules": {"B1": {"name": "human TRPC5 residues 1-764 (hTRPC5_(1-764)), purified tetrameric channel (domain or fragment, UniProt Q9UL62 1-764, looked up)", "chain": "MAQLYYKKVNYSPYRDRIPLQIVRAETELSAEEKAFLNAVEKGDYATVKQALQEAEIYYNVNINCMDPLGRSALLIAIENENLEIMELLLNHSVYVGDALLYAIRKEVVGAVELLLSYRRPSGEKQVPTLMMDTQFSEFTPDITPIMLAAHTNNYEIIKLLVQKRVTIPRPHQIRCNCVECVSSSEVDSLRHSRSRLNIYKALASPSLIALSSEDPILTAFRLGWELKELSKVENEFKAEYEELSQQCKLFAKDLLDQARSSRELEIILNHRDDHSEELDPQKYHDLAKLKVAIKYHQKEFVAQPNCQQLLATLWYDGFPGWRRKHWVVKLLTCMTIGFLFPMLSIAYLISPRSNLGLFIKKPFIKFICHTASYLTFLFMLLLASQHIVRTDLHVQGPPPTVVEWMILPWVLGFIWGEIKEMWDGGFTEYIHDWWNLMDFAMNSLYLATISLKIVAYVKYNGSRPREEWEMWHPTLIAEALFAISNILSSLRLISLFTANSHLGPLQISLGRMLLDILKFLFIYCLVLLAFANGLNQLYFYYETRAIDEPNNCKGIRCEKQNNAFSTLFETLQSLFWSVFGLLNLYVTNVKARHEFTEFVGATMFGTYNVISLVVLLNMLIAMMNNSYQLIADHADIEWKFARTKLWMSYFDEGGTLPPPFNIIPSPKSFLYLGNWFNNTFCPKRDPDGRRRRRNLRSFTERNADSLIQNQHYQEVIRNLVKRYVAAMIRNSKTHEGLTEENFKELKQDISSFRYEVLDLLGNR", "notes": "human TRPC5 (transient receptor potential canonical 5), C-terminally truncated construct, residues 1-764; That this removes the GFP-MBP tag is surmised; also called apo hTRPC5; source: HEK293F, BacMam baculovirus infection, purified (MBP resin, H3C protease digestion, Superose-6 Increase SEC in GDN); not shown: GFP, N-terminal, cleaved; MBP, N-terminal, cleaved"}, "B2": {"name": "GFP-MBP-tagged human TRPC5 residues 1-764 (hTRPC5_(1-764)) as screened by FSEC (domain or fragment, UniProt Q9UL62 1-764, looked up)", "chain": "B1 chain", "notes": "human TRPC5 (transient receptor potential canonical 5), C-terminally truncated construct, residues 1-764; Same construct as m1, but uncleaved and unpurified; It is detected by the fluorescence of its GFP tag in FSEC; source: HEK293F, transfected (PEI), solubilised in LMNG/CHS, in supernatant; not shown: GFP, N-terminal, kept; MBP, N-terminal, kept"}}, "key": {"TRPC5 [1]": {"test_system": "TRPC5", "parameters": "method as in Richter et al., 2014; Zhou et al., 2017; Zhu et al., 2015", "conditions": "ref Richter et al., 2014; Zhou et al., 2017; Zhu et al., 2015; read-out: IC50 for inhibition of TRPC5; cited from earlier work"}, "TRPC5 [2]": {"test_system": "TRPC5", "parameters": "method as in Minard et al., 2019", "conditions": "ref Minard et al., 2019; read-out: EC50 as TRPC5 activator; cited from earlier work"}, "[3]": {"biological_target": "the molecule itself", "assay": "cryo-EM structure; purified hTRPC5(1-764) in GDN micelles with 100 uM Ca2+ plus 500 uM CMZ, 50 uM HC-070 or EA (EA not seen, 'apo'); graphene oxide grids; C4 symmetry imposed in refinement"}, "[4]": {"biological_target": "the molecule itself", "assay": "SEC; fluorescence-detection SEC (FSEC) of transfected HEK293F cells solubilised in 1% LMNG, 0.1% CHS in TBS (20 mM Tris-HCl pH 8.0, 150 mM NaCl), 4°C; Superose-6 Increase"}}}
{"molecule": "c1ccc(Cn2c(NCc3ccco3)nc3ccccc32)cc1", "note": "[AC1903]", "values": [{"measurement": "IC50", "setting": "TRPC5 [1]", "value": 14.7, "unit": "µM"}]}
{"molecule": "Cn1c(=O)n(CCCO)c(=O)c2c1nc(Oc1ccc(Cl)c(OC(F)(F)F)c1)n2Cc1ccc(Cl)cc1", "note": "[AM237]", "values": [{"measurement": "EC50", "setting": "TRPC5 [2]", "value": "0.015 to 0.02", "unit": "µM"}]}
{"molecule": "B1", "values": [{"measurement": "stoichiometry N", "setting": "[3]", "value": 4}]}
{"molecule": "B2", "values": [{"measurement": "stoichiometry N", "setting": "[4]", "value": 4}]}
